Experimental data as given in patent publication US8497240B2 (priority 2006, dated 2013).
Like-named read-outs stand apart in the source and are kept apart here.

Columns and labels:
[1] = IVGTT duration of action assay (single SC injection before glucose); assay type: in vivo, rat; conditions: compared with 0601GIP3794 (794), dosed at −120 min
Method: To determine a duration of action using the IVGTT assay, the sample was injected SC as a single injection at one time point indicated (e.g., t=−240, −120, −60 or −30) prior to administration of glucose. IV glucose was given at t=0.

[2] = target: T1, human GIP receptor (Homo sapiens, UniProt P48546); test: biochemical; assay type: binding
T1 construct: expressed in transfected cells; host or cells: HEK293 (HEK-GIPR), membranes
T1 sequence (P48546 22-466): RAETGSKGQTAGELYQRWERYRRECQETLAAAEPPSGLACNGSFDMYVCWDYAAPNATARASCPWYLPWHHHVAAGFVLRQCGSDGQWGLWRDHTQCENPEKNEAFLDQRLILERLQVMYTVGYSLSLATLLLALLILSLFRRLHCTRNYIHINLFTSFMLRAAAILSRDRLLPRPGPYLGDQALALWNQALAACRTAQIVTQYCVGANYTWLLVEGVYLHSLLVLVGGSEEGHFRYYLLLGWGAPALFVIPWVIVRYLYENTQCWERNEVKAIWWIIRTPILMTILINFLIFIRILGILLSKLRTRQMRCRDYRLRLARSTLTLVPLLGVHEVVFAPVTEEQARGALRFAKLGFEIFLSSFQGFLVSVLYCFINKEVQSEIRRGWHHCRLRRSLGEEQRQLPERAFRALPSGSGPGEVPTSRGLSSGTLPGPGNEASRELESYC

[3] = assay type: in vivo, NIH/Swiss mice; conditions: 30 nmol/kg
Method: (§1) In FIG. 3A, bars represent mean±sd, n=6-10. […] Gavage (1.5 g/kg) was given at t=0, Sample was taken at t=30 min. […] In FIG. 3B, points represent mean±sem, n=8-15.
Peptide was injected IP at t=−5 minutes into 4-hour fasted NIH/Swiss female mice. […] In FIG. 17 points represent mean+/−sem. […] Samples were taken at t=60, t=120 and t=180.

[4] = assay type: in vivo, NIH/Swiss mice; conditions: 80 nmol/kg, AUC240
Method: as §1
Points represent mean±sem.

[5] = read-out: (% Inh 10 nm, GIP-LF Assay)
[6] = read-out: GIP RBA (% Inh 10 nM)

SMILES	Duration In The Rat IVGTT Assay [1]	inhibition at 0.01 µM [2, 5]	inhibition at 0.01 µM [2, 6]	OGTT/GL (%) [3]	Basal Gluc. Low. 80 nmol/Kg [4]
CC[C@H](C)[C@H](NC(=O)[C@H](CO)NC(=O)[C@H](Cc1ccc(O)cc1)NC(=O)[C@H](CC(=O)O)NC(=O)[C@H](CO)NC(=O)[C@@H](NC(=O)[C@H](Cc1ccccc1)NC(=O)[C@@H](NC(=O)CNC(=O)[C@H](CCC(=O)O)NC(=O)[C@@H](C)NC(=O)[C@@H](N)Cc1ccc(O)cc1)[C@@H](C)O)[C@@H](C)CC)C(=O)N[C@@H](C)C(=O)N[C@@H](CCSC)C(=O)N[C@@H](CC(=O)O)C(=O)N[C@@H](CCCCN)C(=O)N[C@H](C(=O)N[C@@H](Cc1c[nH]cn1)C(=O)N[C@@H](CCC(N)=O)C(=O)N[C@@H](CCC(N)=O)C(=O)N[C@@H](CC(=O)O)C(=O)N[C@@H](Cc1ccccc1)C(=O)N[C@H](C(=O)N[C@@H](CC(N)=O)C(=O)N[C@@H](Cc1c[nH]c2ccccc12)C(=O)N[C@@H](CC(C)C)C(=O)N[C@@H](CC(C)C)C(=O)N[C@@H](C)C(=O)N[C@@H](CCC(N)=O)C(=O)N[C@@H](CCCCN)C(=O)N1CCC[C@H]1C(=O)N[C@@H](C)C(=O)N[C@@H](CCCCN)C(=O)N[C@H](C(=O)N[C@@H](CCCNC(=N)N)C(=O)N[C@@H](Cc1ccc(O)cc1)C(=O)N[C@@H](CO)C(N)=O)[C@@H](C)CC)C(C)C)[C@@H](C)CC [Compound 0601GIP4815]	<794@ −120 min	89%	89%	−23, %	
CC[C@H](C)[C@H](NC(=O)[C@H](CO)NC(=O)[C@H](Cc1ccc(O)cc1)NC(=O)[C@H](CC(=O)O)NC(=O)[C@H](CO)NC(=O)[C@@H](NC(=O)[C@H](Cc1ccccc1)NC(=O)[C@@H](NC(=O)CNC(=O)[C@H](CCC(=O)O)NC(=O)[C@@H](C)NC(=O)[C@@H](N)Cc1ccc(O)cc1)[C@@H](C)O)[C@@H](C)CC)C(=O)N[C@@H](C)C(=O)N[C@@H](CCSC)C(=O)N[C@@H](CC(=O)O)C(=O)N[C@@H](CCCCN)C(=O)N[C@H](C(=O)N[C@@H](Cc1c[nH]cn1)C(=O)N[C@@H](CCC(N)=O)C(=O)N[C@@H](CCC(N)=O)C(=O)N[C@@H](CC(=O)O)C(=O)N[C@@H](Cc1ccccc1)C(=O)N[C@H](C(=O)N[C@@H](CC(N)=O)C(=O)N[C@@H](Cc1c[nH]c2ccccc12)C(=O)N[C@@H](CC(C)C)C(=O)N[C@@H](CC(C)C)C(=O)N[C@@H](C)C(=O)N[C@@H](CCC(N)=O)C(=O)N[C@@H](CCCCN)C(=O)N1CCC[C@H]1C(=O)N[C@@H](CCCCN)C(=O)N[C@@H](CCCCN)C(=O)N[C@@H](CC(C)C)C(=O)N[C@@H](CCCCN)C(=O)N1CCC[C@H]1C(=O)N[C@@H](CO)C(N)=O)C(C)C)[C@@H](C)CC [Compound 0601GIP4822]	<794@ −120 min	95.4%	95.4%	−23, %	
CC[C@H](C)[C@H](NC(=O)[C@H](CO)NC(=O)[C@H](Cc1ccc(O)cc1)NC(=O)[C@H](CC(=O)O)NC(=O)[C@H](CO)NC(=O)[C@@H](NC(=O)[C@H](Cc1ccccc1)NC(=O)[C@@H](NC(=O)CNC(=O)[C@H](CCC(=O)O)NC(=O)[C@@H](C)NC(=O)[C@@H](N)Cc1ccc(O)cc1)[C@@H](C)O)[C@@H](C)CC)C(=O)N[C@@H](C)C(=O)N[C@@H](CCSC)C(=O)N[C@@H](CC(=O)O)C(=O)N[C@@H](CCCCN)C(=O)N[C@H](C(=O)N[C@@H](Cc1c[nH]cn1)C(=O)N[C@@H](CCC(N)=O)C(=O)N[C@@H](CCC(N)=O)C(=O)N[C@@H](CC(=O)O)C(=O)N[C@@H](Cc1ccccc1)C(=O)N[C@H](C(=O)N[C@@H](CC(N)=O)C(=O)N[C@@H](Cc1c[nH]c2ccccc12)C(=O)N[C@@H](CC(C)C)C(=O)N[C@@H](CC(C)C)C(=O)N[C@@H](C)C(=O)N[C@@H](CCC(N)=O)C(=O)N[C@@H](CCCCN)C(=O)N1CCC[C@H]1C(=O)N[C@@H](CO)C(=O)N1CCC[C@H]1C(=O)N[C@@H](CCCCN)C(=O)N[C@@H](CCCCN)C(=O)N[C@H](C(=O)N[C@@H](CCCNC(=N)N)C(=O)N[C@@H](Cc1ccc(O)cc1)C(=O)N[C@@H](CO)C(N)=O)[C@@H](C)CC)C(C)C)[C@@H](C)CC [Compound 0601GIP4823]	<794@ −120 min	94.1%	94.1%		−23%,
CC[C@H](C)[C@H](NC(=O)[C@H](CO)NC(=O)[C@H](Cc1ccc(O)cc1)NC(=O)[C@H](CC(=O)O)NC(=O)[C@H](CO)NC(=O)[C@@H](NC(=O)[C@H](Cc1ccccc1)NC(=O)[C@@H](NC(=O)CNC(=O)[C@H](CCC(=O)O)NC(=O)[C@@H](C)NC(=O)[C@@H](N)Cc1ccc(O)cc1)[C@@H](C)O)[C@@H](C)CC)C(=O)N[C@@H](C)C(=O)N[C@@H](CCSC)C(=O)N[C@@H](CC(=O)O)C(=O)N[C@@H](CCCCN)C(=O)N[C@H](C(=O)N[C@@H](Cc1c[nH]cn1)C(=O)N[C@@H](CCC(N)=O)C(=O)N[C@@H](CCC(N)=O)C(=O)N[C@@H](CC(=O)O)C(=O)N[C@@H](Cc1ccccc1)C(=O)N[C@H](C(=O)N[C@@H](CC(N)=O)C(=O)N[C@@H](Cc1c[nH]c2ccccc12)C(=O)N[C@@H](CC(C)C)C(=O)N[C@@H](CC(C)C)C(=O)N[C@@H](C)C(=O)N[C@@H](CCC(N)=O)C(=O)N[C@@H](CCCCN)C(=O)N1CCC[C@H]1C(=O)N[C@@H](CCC(N)=O)C(=O)N[C@@H](CCCCN)C(=O)N[C@H](C(=O)N[C@@H](CCCNC(=N)N)C(=O)N[C@@H](Cc1ccc(O)cc1)C(=O)N[C@@H](CO)C(N)=O)[C@@H](C)CC)C(C)C)[C@@H](C)CC [Compound 0601GIP4853]	<794@ −120 min	91%		−25, %	
CC[C@H](C)[C@H](NC(=O)[C@H](CO)NC(=O)[C@H](Cc1ccc(O)cc1)NC(=O)[C@H](CC(=O)O)NC(=O)[C@H](CO)NC(=O)[C@@H](NC(=O)[C@H](Cc1ccccc1)NC(=O)[C@@H](NC(=O)CNC(=O)[C@H](CCC(=O)O)NC(=O)[C@@H](C)NC(=O)[C@@H](N)Cc1ccc(O)cc1)[C@@H](C)O)[C@@H](C)CC)C(=O)N[C@@H](C)C(=O)N[C@@H](CCSC)C(=O)N[C@@H](CC(=O)O)C(=O)N[C@@H](CCCCN)C(=O)N[C@H](C(=O)N[C@@H](Cc1c[nH]cn1)C(=O)N[C@@H](CCC(N)=O)C(=O)N[C@@H](CCC(N)=O)C(=O)N[C@@H](CC(=O)O)C(=O)N[C@@H](Cc1ccccc1)C(=O)N[C@H](C(=O)N[C@@H](CC(N)=O)C(=O)N[C@@H](Cc1c[nH]c2ccccc12)C(=O)N[C@@H](CC(C)C)C(=O)N[C@@H](CC(C)C)C(=O)N[C@@H](C)C(=O)N[C@@H](CCC(N)=O)C(=O)N[C@@H](CCCCN)C(=O)N1CCC[C@H]1C(=O)N[C@@H](CCCCN)C(=O)N[C@@H](CCC(N)=O)C(=O)N[C@H](C(=O)N[C@@H](CCCNC(=N)N)C(=O)N[C@@H](Cc1ccc(O)cc1)C(=O)N[C@@H](CO)C(N)=O)[C@@H](C)CC)C(C)C)[C@@H](C)CC [Compound 0601GIP4854]	<794@ −120 min	93.5%		−14, %	
